Measurements from patent publication EP4813980A1, “EP300/CBP REGULATOR, AND PREPARATION METHOD THEREFOR AND USE THEREOF” (Miracure Biotechnology Limited, priority 2023, dated 2025).
pIC50: −log10 of the molar value.

Assays:
22RV1 cells = assay: Cell growth inhibition, CellTiter-Glo, 72 h; type: cell-based; details: Homo sapiens, 72 h culture, mean of N=2
Procedure, shortened: (§1)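 Cells seeded at 5×10^3/well in RPMI-1640 with 10% FBS, compound added next day at 0.5% DMSO final, 72 h at 37°C. CellTiter-Glo luminescence read; % inhibition normalised to 0.5% DMSO (0%) and 1% Tween 20 (100%), plotted against concentration in nM; mean ± SEM, N=2.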

MM1S cells = assay: Cell growth inhibition, CellTiter-Glo, 72 h; type: cell-based; details: Homo sapiens, MM1.S, 72 h culture, mean of N=2
Procedure, shortened: as §1

OPM-2 cells = assay: Cell growth inhibition, CellTiter-Glo, 72 h; type: cell-based; details: Homo sapiens, 72 h culture, mean of N=2
Procedure, shortened: as §1

vCap cells = assay: Cell growth inhibition, CellTiter-Glo, 72 h; type: cell-based; details: Homo sapiens, 72 h culture, mean of N=2
Procedure, shortened: as §1

CBP bromodomain = target: T1, CBP bromodomain (Homo sapiens, UniProt Q92793); assay: CBP AlphaLISA Assay Kit: binding of CBP bromodomain to acetylated histone substrate; details: 30 min incubation with CBP and biotinylated substrate, N=2, unit inferred
T1 construct: purchased
T1 sequence (Q92793 1085-1192 limits assumed): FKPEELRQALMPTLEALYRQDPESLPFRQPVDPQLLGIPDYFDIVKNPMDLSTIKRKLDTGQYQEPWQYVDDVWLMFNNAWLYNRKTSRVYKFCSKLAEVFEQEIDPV
Experimental: The biochemical activity test of CBP preparations was detected using CBP AlphaLISA® Assay Kit. The detection principle is based on the binding of CBP bromodomain to acetylated histone substrate. The compounds were incubated with CBP and biotinylated substrate for 30 min, followed by the addition of acceptor beads for 15 min and donor beads for 15 min. Alpha counts were read, data were analyzed using Prism 7.0 and IC50 values were calculated.

BRD4 = BRD4 (Homo sapiens, UniProt O60885); assay: BRD4 counter-assay, tabulated with the CBP AlphaLISA test; type: binding; details: unit inferred

Compound	pIC50 (22RV1 cells)	pIC50 (MM1S cells)	pIC50 (OPM-2 cells)	pIC50 (vCap cells)	pIC50 (CBP bromodomain)	pIC50 (BRD4)
C=CS(=O)(=O)N1CCC(c2cc3c(c(N4CCCc5cc(-c6cnn(C)c6)c(C(F)F)cc54)c2)CN(C(C)=O)C3)CC1 [Compound 1344]	6.58	7.17	7.82	7.48	8.15	5.10
C=CS(=O)(=O)N[C@H]1CC[C@@H](c2cc3c(c(N4CCCc5cc(-c6cnn(C)c6)c(C(F)F)cc54)c2)CN(C(C)=O)C3)CC1 [Compound 1345, N-((1s,4s)-4-(2-acetyl-7-(7-(difluoromethyl)-6-(1-methyl-1H-pyrazol-4-yl)-3,4-dihydroquinolin-1(2H)-yl)isoindolin-5-yl)cyclohexyl)ethenesulfonamide]	7.32	7.82	8.40	7.92	8.03	< 5.00
C=CS(=O)(=O)N1CCC(c2cc3c(c(N4CCCc5cc(-c6cnn(C)c6)c(C(F)F)cc54)c2)CN(C(=O)NC)CC3)CC1 [Compound 1347]	6.81	7.59	8.70		8.12	< 5.00
